From US7414051B2, “Substituted-dihydro[1,4]oxazino[2,3,4-hi]indazole derivatives as 5-hydroxytryptamine-6 ligands” (Wyeth, priority 2006, dated 2008)
pKi: −log10 of the molar value. Structures can show the parent of a compound that is named as a salt.

Legend:
[1] = target: T1, human cloned 5-HT6 receptors (Homo sapiens, UniProt P50406); assay: 5-HT6 binding affinity, [3H]-LSD displacement, membranes of Hela cells expressing human cloned 5-HT6 receptors
T1 construct: expressed in transfected cells; host or cells: HeLa cells
Description: The affinity of test compounds for the serotonin 5-HT6 receptor was evaluated in the following manner. Cultured Hela cells expressing human cloned 5-HT6 receptors were harvested and centrifuged at low speed (1,000×g) for 10.0 minutes to remove the culture media. The harvested cells were suspended in half volume of fresh physiological phosphate buffered saline solution and recentrifuged at the same speed. This operation was repeated. The collected cells were then homogenized in ten volumes of 50 mM Tris.HCl (pH 7.4) and 0.5 mM EDTA. The homogenate was centrifuged at 40,000×g for 30.0 min and the precipitate was collected. The obtained pellet was resuspended in 10 volumes of Tris.HCl buffer and recentrifuged at the same speed. The final pellet was suspended in a small volume of Tris.HCl buffer and the tissue protein content was determined in aliquots of 10-25 μl volumes. Bovine Serum Albumin was used as the standard in the protein determination according to the method described in Lowry et al., J. Biol. Chem., 193: 265 (1951). The volume of the suspended cell membranes was adjusted to give a tissue protein concentration of 1.0 mg/ml of suspension. The prepared membrane suspension (10 times concentrated) was aliquoted in 1.0 ml volumes and stored at −70° C. until used in subsequent binding experiments.
Binding experiments were performed in a 96 well microtiter plate format, in a total volume of 200 μl. […] The test compounds were added in 20.0 μl volume.
The reaction was allowed to proceed in the dark for 120 minutes at room temperature, at which time, the bound ligand-receptor complex was filtered off on a 96 well unifilter with a Packard Filtermate® 196 Harvester. The bound complex caught on the filter disk was allowed to air dry and the radioactivity is measured in a Packard TopCount® equipped with six photomultiplier detectors, after the addition of 40.0 μl Microscint®-20 scintillant to each shallow well. The unifilter plate was heat-sealed and counted in a PackardTopCount® with a tritium efficiency of 31.0%.
Binding in the presence of varying concentrations of test compound was expressed as a percentage of specific binding in the absence of test compound. The results were plotted as log % bound versus log concentration of test compound. […] A linear regression line of data points was plotted, from which the IC50 value is determined and the Ki value is determined based upon the following equation: Ki=IC50/(1+L/KD) where L was the concentration of the radioactive ligand used and KD is the dissociation constant of the ligand for the receptor, both expressed in nM.

T1 sequence (P50406 whole entry): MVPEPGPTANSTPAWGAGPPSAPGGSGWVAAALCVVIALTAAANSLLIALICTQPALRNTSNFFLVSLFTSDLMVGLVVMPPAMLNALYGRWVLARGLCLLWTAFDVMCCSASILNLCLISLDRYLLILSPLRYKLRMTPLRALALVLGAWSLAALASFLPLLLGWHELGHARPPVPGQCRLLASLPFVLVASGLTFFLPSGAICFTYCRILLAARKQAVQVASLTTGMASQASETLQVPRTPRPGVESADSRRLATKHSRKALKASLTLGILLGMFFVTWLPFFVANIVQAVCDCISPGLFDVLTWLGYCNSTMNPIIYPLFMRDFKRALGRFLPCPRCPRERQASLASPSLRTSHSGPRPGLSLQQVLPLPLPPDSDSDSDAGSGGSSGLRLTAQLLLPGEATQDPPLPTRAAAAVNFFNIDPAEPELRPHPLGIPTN

**Q.** For `CN1CCN(c2cc3c4c(c2)c(S(=O)(=O)c2cccc5ccccc25)nn4CCO3)CC1` (as salt: hydrochloride) [Example 6, 8-(4-Methylpiperazin-1-yl)-6-(1-naphthylsulfonyl)-2,3-dihydro[1,4]oxazino[2,3,4-hi]indazole Hydrochloride], which melting point is on record?
**A.** > 225 °C

**Q.** With `CN(C)CCOc1cc2c3c(c1)c(S(=O)(=O)c1cccc4ccccc14)nn3CCO2` [Example 13, N,N-Dimethyl-2-{[6-(1-naphthylsulfonyl)-2,3-dihydro[1,4]oxazino[2,3,4-hi]indazol-8-yl]oxy}ethanamine] as the compound, how does the pKi [1] read?
**A.** 8.10

**Q.** With `CNCCOc1cc2c3c(c1)c(S(=O)(=O)c1cccc4ccccc14)nn3CCO2` [Example 12, N-methyl-2-{[6-(1-naphthylsulfonyl)-2,3-dihydro[1,4]oxazino[2,3,4-hi]indazol-8-yl]oxy}ethanamine Hydrochloride] as the compound, how does the pKi [1] read?
**A.** 8.29

**Q.** With `CN1CCN(c2cc3c4c(c2)c(S(=O)(=O)c2cccc5ccccc25)nn4CCO3)CC1` [Example 6, 8-(4-Methylpiperazin-1-yl)-6-(1-naphthylsulfonyl)-2,3-dihydro[1,4]oxazino[2,3,4-hi]indazole Hydrochloride] as the compound, how does the pKi [1] read?
**A.** 9.00

**Q.** For `O=S(=O)(c1cccc2ccccc12)c1nn2c3c(cc(OCCN4CCCC4)cc13)OCC2` [Example 15, 6-(1-Naphthylsulfonyl)-8-(2-pyrrolidin-1-ylethoxy)-2,3-dihydro[1,4]oxazino[2,3,4-hi]-indazole], which melting point is on record?
**A.** 127 to 129 °C

**Q.** What about the pKi [1] of the same compound?
**A.** 7.85

**Q.** With `O=S(=O)(c1cccc2ccccc12)c1nn2c3c(cc(OCCN4CCCCC4)cc13)OCC2` [Example 14, 6-(1-Naphthylsulfonyl)-8-(2-piperidin-1-ylethoxy)-2,3-dihydro[1,4]oxazino[2,3,4-hi]-indazole] as the compound, how does the melting point read?
**A.** 90 to 92 °C

**Q.** What about the pKi [1] of the same compound?
**A.** 7.59
